# Assay results published in patent US8076324B2, “Di(hetero)arylcyclohexane derivatives, their preparation, their use and pharmaceutical compositions comprising them” (Sanofi-Aventis, priority 2007, dated 2011).
# Molecular target: T1, myocardial ATP-sensitive potassium channel (SUR2A/Kir6.2) (UniProt Q61743+Q63563)
# T1 construct: expressed in transfected cells
# Test: Rubidium efflux test on HEK293 cells transfected with SUR2A and Kir6.2 (myocardial action)
# Type: cell-based, SUR2A from the rat, Kir6.2 from the mouse
# Conditions: HEK293 cells transfected with SUR2A/Kir6.2; KATP channels opened by rilmakalim; 25 min incubation; read-out: IC50 values for the inhibition of the rubidium efflux
# Procedure: 1) Action on the SUR2A/Kir6.2 potassium channel (myocardial action) The action of the compounds on the ion transport through the myocardial ATP-sensitive potassium channel (SUR2A/Kir6.2) was determined in the rubidium efflux test system described below on human embryonic kidney cells HEK293 which were transfected with the components SUR2A and Kir6.2 (cf. Weyermann et al., Naunyn-Schmiedeberg's Arch. Pharmacol. 369, 374-381 (2004)).
# The HEK293 cells were cultured at 37° C. in a humidified air atmosphere with 7% carbon dioxide in minimal essential medium with Earle's salts and L-glutamine (MEM, Gibco), which was supplemented with 10% fetal calf serum and zeozin (0.36 mg/ml) and geneticin (0.75 mg/ml). The transfection of the cells and the preparation of a cell line with stable expression of Kir6.2 from the mouse (accession number AF037313) and SUR2A from the rat (accession number D83598/L40624) were carried out as described in Giblin et al., J. Biol. Chem. 274, 22652-22659 (1999).
# 60 000 transfected cells per well were inoculated into a poly-D-lysine-coated 96-well microtiter plate (Greiner #650 201). After incubation for 24 h at 37° C., the cells were washed three times with buffer 1 (150 mM NaCl, 2 mM CaCl2, 0.8 mM NaH2PO4, 1 mM MgCl2, 5 mM glucose, 25 mM HEPES, pH=7.4). Subsequently, the buffer solution was replaced by 100 μl of rubidium loading buffer (buffer 1 with 5.4 mM RbCl) and the cells were incubated for a further 3 h at 37° C. The rubidium loading buffer was then removed by washing the cells three times with 200 μl each of potassium chloride wash buffer (buffer 1 with 5.4 mM KCl). After addition of the test substances (70 μl; dissolved in potassium chloride wash buffer with addition of DMSO), the KATP channels of the cells were opened by addition of 70 μl of rilmakalim (2 μM) (cf. Krause et al., Pflügers Arch. 429, 625-635 (1995)) and the cells were incubated at 37° C. for 25 min. Subsequently, the cell supernatants were transferred to a new 96-well microtiter plate and the cells were lyzed by addition of 200 μl of lysis buffer (buffer 1 with 1% Triton X-100). The concentrations of Rb^+ in the cell supernatant and in the cell lyzate were measured by means of atomic absorption spectroscopy using an Al 1200 apparatus (Aurora Instruments Ltd.).
# The Rb^+ efflux rate was calculated as [Rb^+SN]/[Rb^+total], wherein [Rb^+SN] is the amount of Rb^+ in the cell supernatant and [Rb^+total] is the sum of the amounts of Rb^+ in the cell supernatant and cell lyzate. IC50 values for the inhibition of the rubidium efflux were calculated with the aid of the Hill equation.
# T1 sequence (Q63563 whole entry): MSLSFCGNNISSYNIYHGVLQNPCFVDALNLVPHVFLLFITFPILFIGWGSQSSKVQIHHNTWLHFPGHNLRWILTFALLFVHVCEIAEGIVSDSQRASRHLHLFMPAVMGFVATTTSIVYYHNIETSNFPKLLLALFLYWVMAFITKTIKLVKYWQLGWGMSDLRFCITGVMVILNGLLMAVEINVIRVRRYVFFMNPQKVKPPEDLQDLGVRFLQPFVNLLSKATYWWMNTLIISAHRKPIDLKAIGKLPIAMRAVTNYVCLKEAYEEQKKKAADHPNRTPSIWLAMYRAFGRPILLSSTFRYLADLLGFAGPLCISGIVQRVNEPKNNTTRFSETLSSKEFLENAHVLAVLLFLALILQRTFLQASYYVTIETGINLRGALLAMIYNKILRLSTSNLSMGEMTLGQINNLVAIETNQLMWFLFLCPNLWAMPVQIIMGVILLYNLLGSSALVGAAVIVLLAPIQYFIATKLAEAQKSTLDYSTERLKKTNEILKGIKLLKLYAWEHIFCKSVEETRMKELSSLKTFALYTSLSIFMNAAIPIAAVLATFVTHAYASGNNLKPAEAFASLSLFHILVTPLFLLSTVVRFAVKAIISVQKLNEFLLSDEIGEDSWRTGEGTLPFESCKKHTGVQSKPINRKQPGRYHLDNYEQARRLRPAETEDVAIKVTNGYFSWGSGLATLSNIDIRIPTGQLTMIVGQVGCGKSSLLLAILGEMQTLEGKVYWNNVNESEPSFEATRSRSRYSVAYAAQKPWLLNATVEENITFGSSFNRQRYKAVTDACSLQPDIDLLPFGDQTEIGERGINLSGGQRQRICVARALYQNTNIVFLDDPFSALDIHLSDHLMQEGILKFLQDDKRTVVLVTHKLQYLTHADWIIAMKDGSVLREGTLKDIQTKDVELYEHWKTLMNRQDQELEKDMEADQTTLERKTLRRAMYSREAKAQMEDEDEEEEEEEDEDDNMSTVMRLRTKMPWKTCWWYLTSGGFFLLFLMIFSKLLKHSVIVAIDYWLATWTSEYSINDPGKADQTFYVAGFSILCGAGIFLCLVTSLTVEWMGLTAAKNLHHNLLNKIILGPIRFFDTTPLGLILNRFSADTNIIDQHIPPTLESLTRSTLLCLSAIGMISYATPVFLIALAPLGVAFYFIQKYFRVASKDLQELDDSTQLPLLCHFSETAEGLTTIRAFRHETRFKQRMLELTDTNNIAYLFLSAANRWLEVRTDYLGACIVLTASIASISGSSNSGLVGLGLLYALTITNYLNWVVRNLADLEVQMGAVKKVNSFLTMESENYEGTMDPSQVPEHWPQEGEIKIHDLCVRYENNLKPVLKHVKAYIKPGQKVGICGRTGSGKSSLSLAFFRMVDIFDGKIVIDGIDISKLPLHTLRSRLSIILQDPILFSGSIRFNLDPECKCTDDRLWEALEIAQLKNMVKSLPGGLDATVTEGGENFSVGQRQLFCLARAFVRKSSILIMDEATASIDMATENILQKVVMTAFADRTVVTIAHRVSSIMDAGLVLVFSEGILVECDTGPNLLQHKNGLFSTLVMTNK
# T1 sequence (Q61743 whole entry): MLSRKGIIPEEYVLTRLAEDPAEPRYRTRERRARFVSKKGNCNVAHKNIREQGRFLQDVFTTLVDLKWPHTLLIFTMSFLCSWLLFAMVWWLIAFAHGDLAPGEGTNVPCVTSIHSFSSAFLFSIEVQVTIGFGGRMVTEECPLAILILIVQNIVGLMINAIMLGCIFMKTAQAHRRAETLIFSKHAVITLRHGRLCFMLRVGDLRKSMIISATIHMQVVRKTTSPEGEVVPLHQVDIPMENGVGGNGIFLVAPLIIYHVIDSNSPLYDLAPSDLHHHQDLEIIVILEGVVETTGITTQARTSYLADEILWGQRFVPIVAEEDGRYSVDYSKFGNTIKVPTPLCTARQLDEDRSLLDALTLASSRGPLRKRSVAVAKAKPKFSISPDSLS
row,Structure (SMILES),IC50 [nM]
1,O=C(O)C1(c2ccccc2)CCC(O)(c2ccc(Cl)c(C(F)(F)F)c2)CC1 (stereo not shown) [Example 104],< 1000
2,O=C(O)C1(c2ccccc2)CCC(OCC2CC2)(c2ccc(-c3ccc(F)c(Br)c3)cc2)CC1 (stereo not shown) [Example 275],< 1000
3,"COc1ccc(-c2cc([C@]3(OCC4CC4)CC[C@@](C(=O)O)(c4ccccc4)CC3)n(CC3CC3)n2)cc1 [Example 319, Trans-4-Cyclopropylmethoxy-4-[2-cyclopropylmethyl-5-(4-methoxyphenyl)-2H-pyrazol-3-yl]-1-phenylcyclohexanecarboxylic Acid]",< 1000
4,COC1(c2ccc(F)cc2)CCC(C(=O)O)(c2ccccc2OC(F)(F)F)CC1 (stereo not shown) [Example 238],< 1000
5,O=C(O)C1(c2ccccc2)CCC(O)(c2ccc(C(F)(F)F)cc2)CC1 (stereo not shown) [Example 101],< 1000
6,CCCOC1(c2ccc(F)cc2)CCC(C(=O)O)(c2ccccc2)CC1 (stereo not shown) [Example 148],< 1000
7,CCCOC1(c2ccc(F)cc2SC)CCC(C(=O)O)(c2ccc(F)cc2)CC1 (stereo not shown) [Example 242],< 1000
8,CS(=O)(=O)c1ccc(F)cc1C1(OCC2CC2)CCC(C(=O)O)(c2ccc(F)cc2)CC1 (stereo not shown) [Example 258],< 1000
9,CCCOC1(c2ccccc2S(C)(=O)=O)CCC(C(=O)O)(c2ccccc2)CC1 (stereo not shown) [Example 174],< 1000
10,"O=C(O)[C@]1(c2ccccc2)CC[C@@](OCC2CC2)(c2ccc(F)cn2)CC1 [Example 267, Cis-4-Cyclopropylmethoxy-4-(5-fluoropyridin-2-yl)-1-phenylcyclohexanecarboxylic Acid]",< 1000
11,O=C(O)C1(c2ccccc2)CCC(O)(c2c(F)cc(F)cc2F)CC1 (stereo not shown) [Example 98],< 1000
12,"O=C(O)[C@]1(c2ccccc2)CC[C@](OCC2CC2)(c2nc(-c3ccccc3)cs2)CC1 [Example 333-2, Trans-4-Cyclopropylmethoxy-1-phenyl-4-(4-phenylthiazol-2-yl)cyclohexanecarboxylic Acid]",< 1000
13,CCOC1(c2cccc(S(C)(=O)=O)c2)CCC(C(=O)O)(c2ccccc2)CC1 (stereo not shown) [Example 167],< 1000
14,Cc1nc([C@]2(OCC3CC3)CC[C@](C(=O)O)(c3ccc(F)cc3)CC2)n(CC2CC2)c1C [Example 365],< 1000
15,COC1(c2ccc(C)c(F)c2)CCC(C(=O)O)(c2ccccc2)CC1 (stereo not shown) [Example 123],< 1000
16,O=C(O)C1(c2ccc(F)cc2)CCC(OCC2CC2)(c2ccc(F)cc2)CC1 (stereo not shown) [Example 249],< 1000
17,"CS(=O)(=O)c1cc(F)cc([C@]2(OCC3CC3)CC[C@](C(=O)O)(c3ccc(F)cc3)CC2)c1 [Example 301, Cis-4-Cyclopropylmethoxy-4-(3-fluoro-5-methanesulfonylphenyl)-1-(4-fluorophenyl)cyclohexanecarboxylic Acid]",< 1000

row,Structure (SMILES),IC50 [nM]
1,"O=C(O)C1(c2ccccc2)CCC(OCCC2CC2)(c2ccc(F)cc2)CC1 (stereo not shown) [Example 306, 4-(2-Cyclopropylethoxy)-4-(4-fluorophenyl)-1-phenylcyclohexanecarboxylic Acid]",< 1000
2,COC1(c2ccccc2S(C)(=O)=O)CCC(C(=O)O)(c2ccccc2)CC1 (stereo not shown) [Example 172],< 1000
3,CS(=O)(=O)c1ccccc1C1(OCC2CC2)CCC(C(=O)O)(c2ccc(F)cc2)CC1 (stereo not shown) [Example 254],< 1000
4,CCOC1(c2ccc(F)cc2)CCC(C(=O)O)(c2ccccc2)CC1 (stereo not shown) [Example 141],< 1000
5,O=C(O)C1(c2ccccc2)CCC(O)(c2ccc(F)cc2)CC1 (stereo not shown) [Example 93],< 1000
6,COC1(c2cccc(C(F)(F)F)c2)CCC(C(=O)O)(c2ccccc2)CC1 (stereo not shown) [Example 125],< 1000
7,COC1(c2ccc(F)cc2)CCC(C(=O)O)(c2cccc(F)c2)CC1 (stereo not shown) [Example 234],< 1000
8,COC1(c2ccc(F)cc2)CCC(C(=O)O)(c2ccccc2F)CC1 (stereo not shown) [Example 235],< 1000
9,Cc1nc([C@]2(OCC3CC3)CC[C@@](C(=O)O)(c3ccc(F)cc3)CC2)n(CC2CC2)c1Br [Example 369],< 1000
10,Cc1nc([C@]2(OCCC(C)C)CC[C@](C(=O)O)(c3ccc(F)cc3)CC2)n(CC2CC2)c1C [Example 372],< 1000
11,CCCOC1(c2cc(F)ccc2SC)CCC(C(=O)O)(c2ccc(F)cc2)CC1 (stereo not shown) [Example 248],< 1000
12,COC1(c2cnc3ccccc3c2)CCC(C(=O)O)(c2ccccc2)CC1 (stereo not shown) [Example 136],< 1000
13,"CC(C)(C)S(=O)(=O)c1cc(F)cc([C@]2(OCC3CC3)CC[C@](C(=O)O)(c3ccc(F)cc3)CC2)c1 [Example 304-3, Cis-4-Cyclopropylmethoxy-4-[3-fluoro-5-(2-methylpropane-2-sulfonyl)phenyl]-1-(4-fluorophenyl)cyclohexanecarboxylic Acid]",< 1000
14,O=C(O)C1(c2ccccc2)CCC(OCC2CC2)(c2cnc3ccccc3c2)CC1 (stereo not shown) [Example 152],< 1000
15,C=Cc1ccccc1C1(OC)CCC(C(=O)O)(c2ccccc2)CC1 (stereo not shown) [Example 135],< 1000
16,COc1ccc(C2(OC)CCC(C(=O)O)(c3ccccc3)CC2)cc1F (stereo not shown) [Example 131],< 1000

# The next lines start with the values.
row,IC50 [nM],Structure (SMILES)
1,< 1000,Cc1nc([C@]2(OCC3CC3)CC[C@](C(=O)O)(c3ccccc3)CC2)n(CC2CC2)c1C [Example 377]
2,< 1000,Cc1nc([C@]2(OCCC(C)(C)C)CC[C@](C(=O)O)(c3ccccc3)CC2)n(C)c1Cl [Example 392]
3,< 1000,Cc1ccc([C@]2(C(=O)O)CC[C@](OCC3CC3)(c3nc4ccccc4n3CC3CC3)CC2)cc1 [Example 412]
4,< 1000,Cc1c(Br)nc([C@]2(Oc3ccccc3)CC[C@@](C(=O)O)(c3ccc(F)cc3)CC2)n1CC1CC1 [Example 404]
5,< 1000,"O=C(O)[C@]1(c2ccccc2)CC[C@](OCC2CC2)(c2nccn2CC2CC2)CC1 [Example 493, Trans-Cyclopropylmethoxy-4-(1-cyclopropylmethyl-1H-imidazol-2-yl)-1-phenylcyclohexanecarboxylic Acid]"
6,< 1000,CC(C)c1nc([C@]2(OCC3CC3)CC[C@](C(=O)O)(c3ccccc3)CC2)n(CC2CC2)c1Cl [Example 394]
7,< 1000,Cc1nc([C@]2(OCC3CC3)CC[C@](C(=O)O)(c3ccccc3)CC2)n(C)c1Cl [Example 391]
8,< 1000,"O=C(O)[C@]1(c2ccccc2)CC[C@](OCC2CC2)(c2ccnc(-c3ccccc3)c2)CC1 [Example 489, Trans-4-Cyclopropylmethoxy-1-phenyl-4-(2-phenylpyridin-4-yl)cyclohexanecarboxylic Acid]"
9,< 1000,Cc1nc([C@]2(OCC3CC3)CC[C@](C(=O)O)(c3cccc(OC(F)(F)F)c3)CC2)n(CC2CC2)c1Cl [Example 409]
10,< 1000,CCCn1c(Cl)c(C)nc1[C@]1(OCC2CC2)CC[C@](C(=O)O)(c2ccccc2)CC1 [Example 388]
11,< 1000,CC(C)(C)c1nc([C@]2(OCC3CC3)CC[C@](C(=O)O)(c3ccccc3)CC2)n(CC2CC2)c1Cl [Example 393]
12,< 1000,CS(=O)(=O)c1ccc(-c2nc([C@]3(Oc4ccccc4)CC[C@@](C(=O)O)(c4ccccc4)CC3)n(CC3CC3)n2)cc1 [Example 467]
13,< 1000,O=C(O)[C@]1(c2ccccc2)CC[C@@](OCC2CC2)(c2nc(C(F)(F)F)cn2CC2CC2)CC1 [Example 380]
14,< 1000,O=C(O)[C@]1(c2ccccc2)CC[C@@](OCC2CC2)(c2nc3cc(F)ccc3n2CC2CC2)CC1 [Example 452]
15,< 1000,O=C(O)[C@]1(c2ccccc2)CC[C@](OCC2CC2)(c2ncc(C(F)(F)F)n2CC2CC2)CC1 [Example 379]
16,< 1000,O=C(O)[C@]1(c2ccccc2)CC[C@](OCC2CC2)(c2nc3cc(Cl)ccc3n2CC2CC2)CC1 [Example 451]
17,< 1000,"Cc1c(F)cc([C@]2(OCC3CC3)CC[C@](C(=O)O)(c3ccccc3)CC2)cc1S(C)(=O)=O [Example 482, Cis-4-Cyclopropylmethoxy-4-(3-fluoro-5-methanesulfonyl-4-methylphenyl)-1-phenylcyclohexanecarboxylic Acid]"
18,< 1000,Cc1nc([C@]2(OCC3(C)COC3)CC[C@](C(=O)O)(c3ccccc3)CC2)n(CC2CC2)c1Cl [Example 385]
19,< 1000,Cc1c(Br)nc([C@]2(OCCC(C)C)CC[C@](C(=O)O)(c3ccccc3)CC2)n1CC1CC1 [Example 374]
